We go through 5 compounds from patent publication US8450266B2 (Ipsen Pharma S.A.S., priority 2008, dated 2013).

Data set [1] in a line: Human plasma half-life assay (LC-MS). Type of data set: in vitro ADME. Conditions: incubated at 37° C., read-out: Human Plasma T½ (converted). Put shortly: (§1)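 Aliquots taken from human or rat plasma at time points up to 72 h, quenched with formic acid and acetonitrile, centrifuged. Supernatant analyzed by LC-MS (ESI, positive ion, full scan) on a C8 column with a water/acetonitrile 1% formic acid gradient.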

Data set [2] in a line: Rat plasma half-life assay (LC-MS). Type of data set: in vitro ADME. Conditions: incubated at 37° C., read-out: Rat Plasma T½ (converted). Put shortly:
as §1

Where a SMILES comes first, the peptide text is derived from it. [ ]: non-standard residue; d: D form. The star is where a group is joined. Ac6c = NC1(C(=O)O)CCCCC1; X1 = CCCN1C(=O)CC(*)C1=O

`CC[C@H](C)[C@H](NC(=O)[C@H](CO)NC(=O)[C@H](Cc1ccc(O)cc1)NC(=O)[C@H](CC(=O)O)NC(=O)[C@H](CO)NC(=O)C1(NC(C)=O)CCCCC1)C(=O)N[C@@H](C)C(=O)N[C@@H](CCSC)C(=O)N[C@@H](CC(=O)O)C(=O)N[C@@H](CCCCN)C(=O)N[C@H](C(=O)N[C@@H](Cc1c[nH]cn1)C(=O)N[C@@H](CCC(N)=O)C(=O)N[C@@H](CCC(N)=O)C(=O)N[C@@H](CC(=O)O)C(=O)N[C@@H](Cc1ccccc1)C(=O)N[C@H](C(=O)N[C@@H](CC(N)=O)C(=O)N[C@@H](Cc1c[nH]c2ccccc12)C(=O)N[C@@H](CC(C)C)C(=O)N[C@@H](CC(C)C)C(=O)N[C@@H](C)C(=O)N[C@@H](CCC(N)=O)C(=O)N[C@@H](CCCCN)C(=O)N[C@@H](Cc1ccc2ccccc2c1)C(=O)N[C@@H](CCCCN)C(=O)N[C@@H](CCCCN)C(=O)N[C@@H](CC(N)=O)C(=O)N[C@@H](CC(=O)O)C(=O)N[C@@H](Cc1c[nH]c2ccccc12)C(=O)N[C@@H](CCCCN)C(=O)N[C@@H](Cc1c[nH]cn1)C(=O)N[C@@H](CC(N)=O)C(=O)N[C@H](C(=O)N[C@H](C(=O)N[C@@H](CCC(N)=O)C(=O)O)[C@@H](C)O)[C@@H](C)CC)C(C)C)[C@@H](C)CC` [Example 24, (Ac-A6c^7, 2Nal^31)hGIP(7-42)-OH] (HELM PEPTIDE1{[ac].[O=C(C1(N[*:1])CCCCC1)[*:2]].S.D.Y.S.I.A.M.D.K.I.H.Q.Q.D.F.V.N.W.L.L.A.Q.K.[O=C([C@H](Cc1ccc2ccccc2c1)N[*:1])[*:2]].K.K.N.D.W.K.H.N.I.T.Q}$$$$V2.0): the results for the half-life at 0.1 mg/mL in data set [1] and in data set [2] were 26.3 h and 12.2 h, respectively.

Consider `CCCN1C(=O)CC(SC[C@H](NC(=O)[C@H](CCCCN)NC(=O)[C@H](CCCCN)NC(=O)CNC(=O)[C@H](CCCCN)NC(=O)[C@H](CCC(N)=O)NC(=O)[C@H](C)NC(=O)[C@H](CC(C)C)NC(=O)[C@H](CC(C)C)NC(=O)[C@H](Cc2c[nH]c3ccccc23)NC(=O)[C@H](CC(N)=O)NC(=O)[C@@H](NC(=O)[C@H](Cc2ccccc2)NC(=O)[C@H](CC(=O)O)NC(=O)[C@H](CCC(N)=O)NC(=O)[C@H](CCC(N)=O)NC(=O)[C@H](Cc2c[nH]cn2)NC(=O)[C@@H](NC(=O)[C@H](CCCCN)NC(=O)[C@H](CC(=O)O)NC(=O)[C@H](CCSC)NC(=O)[C@H](C)NC(=O)[C@@H](NC(=O)[C@H](CO)NC(=O)[C@H](Cc2ccc(O)cc2)NC(=O)[C@H](CC(=O)O)NC(=O)[C@H](CO)NC(=O)C2(NC(C)=O)CCCCC2)[C@@H](C)CC)[C@@H](C)CC)C(C)C)C(=O)N[C@@H](CC(=O)O)C(=O)N[C@@H](Cc2c[nH]c3ccccc23)C(=O)N[C@@H](CCCCN)C(=O)N[C@@H](Cc2c[nH]cn2)C(=O)N[C@@H](CC(N)=O)C(=O)N[C@H](C(=O)N[C@H](C(=O)N[C@@H](CCC(N)=O)C(=O)O)[C@@H](C)O)[C@@H](C)CC)C1=O` (stereo partly shown) [Example 7, [Ac-A6c^7, Cys(Psu)^34]hGIP(7-42)-OH] (Ac-[Ac6c]SDYSIAMDKIHQQDFVNWLLAQKGKKC(X1)DWKHNITQ-OH), for which the half-life at 0.1 mg/mL in data set [1] was 7.9 h; in data set [2], 1.6 h.

For `CCCN1C(=O)CC(SC[C@H](NC(=O)[C@H](CCCCN)NC(=O)[C@H](CCC(N)=O)NC(=O)[C@H](C)NC(=O)[C@H](CC(C)C)NC(=O)[C@H](CC(C)C)NC(=O)[C@H](Cc2c[nH]c3ccccc23)NC(=O)[C@H](CC(N)=O)NC(=O)[C@@H](NC(=O)[C@H](Cc2ccccc2)NC(=O)[C@H](CC(=O)O)NC(=O)[C@H](CCC(N)=O)NC(=O)[C@H](CCC(N)=O)NC(=O)[C@H](Cc2c[nH]cn2)NC(=O)[C@@H](NC(=O)[C@H](CCCCN)NC(=O)[C@H](CC(=O)O)NC(=O)[C@H](CCSC)NC(=O)[C@H](C)NC(=O)[C@@H](NC(=O)[C@H](CO)NC(=O)[C@H](Cc2ccc(O)cc2)NC(=O)[C@H](CC(=O)O)NC(=O)[C@H](CO)NC(=O)C2(NC(=O)[C@@H](N)Cc3ccccc3)CCCCC2)[C@@H](C)CC)[C@@H](C)CC)C(C)C)C(=O)N[C@@H](CCCCN)C(=O)N[C@@H](CCCCN)C(=O)N[C@@H](CC(N)=O)C(=O)N[C@@H](CC(=O)O)C(=O)N[C@@H](Cc2c[nH]c3ccccc23)C(=O)N[C@@H](CCCCN)C(=O)N[C@@H](Cc2c[nH]cn2)C(=O)N[C@@H](CC(N)=O)C(=O)N[C@H](C(=O)N[C@H](C(=O)N[C@@H](CCC(N)=O)C(=O)O)[C@@H](C)O)[C@@H](C)CC)C1=O` (stereo partly shown) [Example 31, [A6c^7, Cys(Psu)^31]hGIP(6-42)-OH] (H-F[Ac6c]SDYSIAMDKIHQQDFVNWLLAQKC(X1)KKNDWKHNITQ-OH), the figures for the half-life at 0.1 mg/mL in data set [1] and in data set [2] were 4.4 h and 5.1 h, respectively.

As for `CC[C@H](C)[C@H](NC(=O)[C@H](CCCCN)NC(=O)[C@H](CC(=O)O)NC(=O)[C@H](CCSC)NC(=O)C(C)(C)NC(=O)[C@@H](NC(=O)[C@H](CO)NC(=O)[C@H](Cc1ccc(O)cc1)NC(=O)[C@H](CC(=O)O)NC(=O)[C@H](CO)NC(=O)[C@@H](NC(=O)[C@H](Cc1ccccc1)NC(=O)[C@@H](NC(=O)CNC(=O)[C@H](CCC(=O)O)NC(=O)CCc1ccc(O)cc1)[C@@H](C)O)[C@@H](C)CC)[C@@H](C)CC)C(=O)N[C@@H](Cc1c[nH]cn1)C(=O)N[C@@H](CCC(N)=O)C(=O)N[C@@H](CCC(N)=O)C(=O)N[C@@H](CC(=O)O)C(=O)N[C@@H](Cc1ccccc1)C(=O)N[C@H](C(=O)N[C@@H](CC(N)=O)C(=O)N[C@@H](Cc1c[nH]c2ccccc12)C(=O)N[C@@H](CC(C)C)C(=O)N[C@@H](CC(C)C)C(=O)N[C@@H](C)C(=O)N[C@@H](CCC(N)=O)C(=O)N[C@@H](CCCCN)C(=O)NCC(=O)N[C@@H](CCCCN)C(=O)N[C@@H](CCCCN)C(=O)N[C@@H](CC(N)=O)C(=O)N[C@@H](CC(=O)O)C(=O)N[C@@H](Cc1c[nH]c2ccccc12)C(=O)N[C@@H](CCCCN)C(=O)N[C@@H](Cc1c[nH]cn1)C(=O)N[C@@H](CC(N)=O)C(=O)N[C@H](C(=O)N[C@H](C(=O)N[C@@H](CCC(N)=O)C(=O)O)[C@@H](C)O)[C@@H](C)CC)C(C)C` [Example 44, (4Hppa^2, Aib^13)hGIP(2-42)-OH)], the half-life at 0.1 mg/mL in data set [1] is 48.8 h; in data set [2], 9.9 h.

For the compound `CCCC[C@H](NC(=O)[C@H](C)NC(=O)[C@@H](NC(=O)[C@H](CO)NC(=O)[C@H](Cc1ccc(O)cc1)NC(=O)[C@H](CC(=O)O)NC(=O)[C@H](CO)NC(=O)C1(NC(=O)[C@@H](N)Cc2ccccc2)CCCCC1)[C@@H](C)CC)C(=O)N[C@@H](CC(=O)O)C(=O)N[C@@H](CCCCN)C(=O)N[C@H](C(=O)N[C@@H](Cc1c[nH]cn1)C(=O)N[C@@H](CCC(N)=O)C(=O)N[C@@H](CCC(N)=O)C(=O)N[C@@H](CC(=O)O)C(=O)N[C@@H](Cc1ccccc1)C(=O)N[C@H](C(=O)N[C@@H](CC(N)=O)C(=O)N[C@@H](Cc1c[nH]c2ccccc12)C(=O)N[C@@H](CC(C)C)C(=O)N[C@@H](CC(C)C)C(=O)N[C@@H](C)C(=O)N[C@@H](CCC(N)=O)C(=O)N[C@@H](CCCCN)C(N)=O)C(C)C)[C@@H](C)CC` [Example 36, (A6c^7, Nle^14)hGIP(6-30)-NH2] (HELM PEPTIDE1{F.[O=C(C1(N[*:1])CCCCC1)[*:2]].S.D.Y.S.I.A.[Nle].D.K.I.H.Q.Q.D.F.V.N.W.L.L.A.Q.K.[am]}$$$$V2.0), the half-life at 0.1 mg/mL in data set [1] is 21.9 h; in data set [2], 21.6 h.
